Like-named read-outs stand apart in the source and are kept apart here. Marks after values point to notes of the source that are not given here.
What was measured:
physchem = settings: pH 2.7
Alternaria solani = assay: Alternaria test (tomato) / protective; assay type: in vivo; settings: 500 ppm active compound, protective spray, evaluated 7 days after inoculation
Description: Alternaria Test (Tomato)/Protective
Solvent: 49 parts by weight of N,N-dimethylformamide
Emulsifier: 1 part by weight of alkylaryl polyglycol ether
To produce a suitable preparation of active compound, 1 part by weight of active compound is mixed with the stated amounts of solvent and emulsifier, and the concentrate is diluted with water to the desired concentration.
To test for protective activity, young tomato plants are sprayed with the preparation of active compound at the stated application rate. […] The plants then remain at 96% rel. atmospheric humidity and a temperature of 20° C.
Evaluation is carried out 7 days after the inoculation. 0% means an efficacy which corresponds to that of the control, whereas an efficacy of 100% means that no infection is observed.

Fusarium graminearum = assay type: cell-based; settings: 50 μM; for % Inhibition of DON/AcDON at 50 μM: 7 days at 28° C.
Pyrenophora teres = assay: In vivo test on Pyrenophora teres (barley net blotch); settings: dose of 500 ppm; barley plants; grading 12 days after contamination
Description: In Vivo Test on Pyrenophora teres (Barley Net Blotch)
The active ingredients tested are prepared by homogenization in a mixture of acetone/Tween/DMSO, then diluted with water to obtain the desired active material concentration.
Barley plants (Plaisant variety), sown on a 50/50 peat soil-pozzolana substrate in starter cups and grown at 12° C., are treated at the 1-leaf stage (10 cm tall) by spraying with the active ingredient prepared as described above.
Plants, used as controls, are treated with an aqueous solution not containing the active material.
After 24 hours, the plants are contaminated by spraying them with an aqueous suspension of Pyrenophora teres spores (12,000 spores per ml). The spores are collected from a 12-day-old culture. The contaminated barley plants are incubated for 24 hours at about 20° C. and at 100% relative humidity, and then for 12 days at 80% relative humidity.
Grading is carried out 12 days after the contamination, in comparison with the control plants.

CC(C)Nc1nccc(-c2c[nH]nc2-c2ccc(Cl)s2)n1 [4-[3-(5-Chloro-2-thienyl)-1H-pyrazol-4-yl]-2-(isopropylamino)pyrimidine]
log p (physchem): 1.79

CC(C)n1ccc(-c2cccs2)n1 [1-Isopropyl-3-(2-thienyl)-1H-pyrazole]
log p (physchem): 2.66

Cc1csc(-c2ccn(C)n2)c1 [1-Methyl-3-(4-methyl-2-thienyl)-1H-pyrazole]
log p (physchem): 2.14

CCn1nccc1-c1cc(C)cs1 [1-Ethyl-5-(4-methyl-2-thienyl)-1H-pyrazole]
log p (physchem): 2.68

CCC(C)n1nc(-c2ccc(Cl)s2)c(-c2ccncc2)c1SC (centres unmarked) [4-[3-(5-Chloro-2-thienyl)-5-methylsulfanyl-1-secbutyl-1H-pyrazol-4-yl]pyridine]
log p (physchem): 3.35

CCn1cc(I)c(-c2cc(C)cs2)n1 [1-Ethyl-4-iodo-3-(4-methyl-2-thienyl)-1H-pyrazole]
log p (physchem): 3.7

Brc1cc(-c2cc[nH]n2)sc1Br [3-(4,5-Dibromo-2-thienyl)-1H-pyrazole]
log p (physchem): 2.74

Cc1csc(-c2ccnn2C)c1 [1-Methyl-5-(4-methyl-2-thienyl)-1H-pyrazole]
log p (physchem): 2.26

CC(C)n1cc(-c2ccnc(S(C)(=O)=O)n2)c(-c2ccc(Cl)s2)n1 [4-[3-(5-Chloro-2-thienyl)-1-isopropyl-1H-pyrazol-4-yl]-2-(methylsulfonyl)pyrimidine]
log p (physchem): 3.15

CSc1nccc(-c2c[nH]nc2-c2ccc(Cl)s2)n1 [4-[3-(5-Chloro-2-thienyl)-1H-pyrazol-4-yl]-2-(methylsulfanyl)pyrimidine]
log p (physchem): 2.78

CCC(C)n1cc(I)c(-c2cc(Cl)cs2)n1 (centres unmarked) [1-sec-Butyl-3-(4-chloro-2-thienyl)-4-iodo-1H-pyrazole]
log p (physchem): 5.01

CC(C)n1ccc(-c2cc(Br)cs2)n1 [3-(4-Bromo-2-thienyl)-1-isopropyl-1H-pyrazole]
log p (physchem): 3.61

CC(C)Nc1nccc(C(=CN(C)C)C(=O)c2ccc(Cl)s2)n1 [3-(Dimethylamino)-1-(5-chloro-2-thienyl)-2-[2-(isopropylamino)pyrimidin-4-yl]prop-2-en-1-one]
log p (physchem): 1.67

CCCn1cc(I)c(-c2cccs2)n1 [4-Iodo-1-propyl-3-(2-thienyl)-1H-pyrazole]
log p (physchem): 3.65

CCCc1c(I)c(-c2cccs2)nn1C [4-Iodo-1-methyl-5-propyl-3-(2-thienyl)-1H-pyrazole]
log p (physchem): 3.92

CCn1cc(-c2ccnc(NC(=O)COC)c2)c(-c2ccc(Cl)s2)n1 [Example 261]
efficacy (Alternaria solani): 90% | % Inhibition of fungal growth at 50 μM (Fusarium graminearum): 96% | % Inhibition of DON/AcDON at 50 μM (Fusarium graminearum): 98% | log p (pH 2.7): 2.78^[b] | protection (Pyrenophora teres): 90%

COCC(=O)Nc1cc(-c2cn(C)nc2-c2ccc(Cl)s2)ccn1 [Example 276]
efficacy (Alternaria solani): 90% | % Inhibition of fungal growth at 50 μM (Fusarium graminearum): 98% | % Inhibition of DON/AcDON at 50 μM (Fusarium graminearum): 98% | log p (pH 2.7): 2.4^[b] | protection (Pyrenophora teres): 80%

CCC(C)n1cc(-c2ccnc(NC(=O)CC(C)C)c2)c(-c2ccc(Cl)s2)n1 (centres unmarked) [Example 235]
efficacy (Alternaria solani): 95% | % Inhibition of fungal growth at 50 μM (Fusarium graminearum): 0% | % Inhibition of DON/AcDON at 50 μM (Fusarium graminearum): 86% | log p (pH 2.7): 4.08^[b] | protection (Pyrenophora teres): 95%

CCC(C)n1cc(-c2ccnc(NC(=O)CC3CC3)c2)c(-c2ccc(Cl)s2)n1 (centres unmarked) [Example 229]
efficacy (Alternaria solani): 95% | % Inhibition of fungal growth at 50 μM (Fusarium graminearum): 82% | % Inhibition of DON/AcDON at 50 μM (Fusarium graminearum): 98% | log p (pH 2.7): 3.81^[b] | protection (Pyrenophora teres): 90%

CCC(C)n1cc(-c2ccnc(NC(=O)C3CCC3)c2)c(-c2ccc(Cl)s2)n1 (centres unmarked) [Example 240]
efficacy (Alternaria solani): 95% | % Inhibition of fungal growth at 50 μM (Fusarium graminearum): 37% | % Inhibition of DON/AcDON at 50 μM (Fusarium graminearum): 99% | log p (pH 2.7): 3.81^[b] | protection (Pyrenophora teres): 90%

Cc1ccc(-c2nn(C(C)C)cc2-c2ccncc2)s1 [Example 199]
efficacy (Alternaria solani): 89% | % Inhibition of fungal growth at 50 μM (Fusarium graminearum): 100% | % Inhibition of DON/AcDON at 50 μM (Fusarium graminearum): 99% | log p (pH 2.7): 1.5^[b] | protection (Pyrenophora teres): 95%

CC(=O)N(C(C)=O)c1cc(-c2cnn(/C=C/F)c2-c2ccc(Cl)s2)ccn1 [Example 291]
efficacy (Alternaria solani): 90% | % Inhibition of fungal growth at 50 μM (Fusarium graminearum): 18% | % Inhibition of DON/AcDON at 50 μM (Fusarium graminearum): 100% | log p (pH 2.7): 3.39^[b] | protection (Pyrenophora teres): 95%

CCOCCn1cc(-c2ccncc2)c(-c2ccc(Cl)s2)n1 [Example 364]
efficacy (Alternaria solani): 100% | % Inhibition of fungal growth at 50 μM (Fusarium graminearum): 100% | % Inhibition of DON/AcDON at 50 μM (Fusarium graminearum): 99% | log p (pH 2.7): 1.69^[b] | protection (Pyrenophora teres): 70%

CC(C)n1cc(-c2ccnc(NC(=O)[C@H](C)O)c2)c(-c2ccc(Cl)s2)n1 [Example 205]
efficacy (Alternaria solani): 90% | % Inhibition of fungal growth at 50 μM (Fusarium graminearum): 84% | % Inhibition of DON/AcDON at 50 μM (Fusarium graminearum): 98% | log p (pH 2.7): 2.75^[b] | protection (Pyrenophora teres): 95%

CC(C)CC(=O)Nc1cc(-c2cn(C)nc2-c2ccc(Cl)s2)ccn1 [Example 270]
efficacy (Alternaria solani): 95% | % Inhibition of fungal growth at 50 μM (Fusarium graminearum): 49% | % Inhibition of DON/AcDON at 50 μM (Fusarium graminearum): 98% | log p (pH 2.7): 2.75^[b] | protection (Pyrenophora teres): 95%

CC(=O)Nc1cc(-c2cn(/C=C/F)nc2-c2ccc(Cl)s2)ccn1 [Example 293]
efficacy (Alternaria solani): 80% | % Inhibition of fungal growth at 50 μM (Fusarium graminearum): 32% | % Inhibition of DON/AcDON at 50 μM (Fusarium graminearum): 100% | log p (pH 2.7): 2.52^[b] | protection (Pyrenophora teres): 90%

CCC(C)n1cc(-c2ccnc(NC3COC3)n2)c(-c2ccc(Cl)s2)n1 (centres unmarked) [Example 194]
efficacy (Alternaria solani): 95% | % Inhibition of fungal growth at 50 μM (Fusarium graminearum): 90% | % Inhibition of DON/AcDON at 50 μM (Fusarium graminearum): 99% | log p (pH 2.3): 3.09^[a] | protection (Pyrenophora teres): 100%

CCC(C)n1cc(-c2ccnc(NC(=O)[C@H](C)O)c2)c(-c2ccc(Cl)s2)n1 (some centres unmarked) [Example 204]
efficacy (Alternaria solani): 80% | % Inhibition of fungal growth at 50 μM (Fusarium graminearum): 56% | % Inhibition of DON/AcDON at 50 μM (Fusarium graminearum): 95% | log p (pH 2.7): 3.13^[b] | protection (Pyrenophora teres): 80%

N#CCCn1cc(-c2ccncc2)c(-c2ccc(F)s2)n1 [Example 340]
efficacy (Alternaria solani): 94% | % Inhibition of fungal growth at 50 μM (Fusarium graminearum): 91% | % Inhibition of DON/AcDON at 50 μM (Fusarium graminearum): 98% | log p (pH 2.7): 1.12^[b] | protection (Pyrenophora teres): 70%

N#CCCn1cc(-c2ccncc2)c(-c2ccc(Br)s2)n1 [Example 350]
efficacy (Alternaria solani): 80% | % Inhibition of fungal growth at 50 μM (Fusarium graminearum): 92% | % Inhibition of DON/AcDON at 50 μM (Fusarium graminearum): 99% | log p (pH 2.7): 1.42^[b] | protection (Pyrenophora teres): 90%

CC(=O)N(C(C)=O)c1cc(-c2cn(C)nc2-c2ccc(Cl)s2)ccn1 [Example 303]
efficacy (Alternaria solani): 95% | % Inhibition of fungal growth at 50 μM (Fusarium graminearum): 83% | % Inhibition of DON/AcDON at 50 μM (Fusarium graminearum): 100% | log p (pH 2.7): 2.52^[b] | protection (Pyrenophora teres): 70%

CCC(C)n1cc(-c2ccnc(NC(=O)COC)c2)c(-c2ccc(Cl)s2)n1 (centres unmarked) [Example 223]
efficacy (Alternaria solani): 95% | % Inhibition of fungal growth at 50 μM (Fusarium graminearum): 79% | % Inhibition of DON/AcDON at 50 μM (Fusarium graminearum): 99% | log p (pH 2.7): 3.68^[b] | protection (Pyrenophora teres): 95%

CCn1cc(-c2ccnc(NC(=O)CC3CC3)c2)c(-c2ccc(Cl)s2)n1 [Example 253]
efficacy (Alternaria solani): 95% | % Inhibition of fungal growth at 50 μM (Fusarium graminearum): 100% | % Inhibition of DON/AcDON at 50 μM (Fusarium graminearum): 99% | log p (pH 2.7): 2.94^[b] | protection (Pyrenophora teres): 100%

CC(C)n1cc(-c2ccnc(NC(=O)CC3CC3)c2)c(-c2ccc(Cl)s2)n1 [Example 250]
efficacy (Alternaria solani): 90% | % Inhibition of fungal growth at 50 μM (Fusarium graminearum): 29% | % Inhibition of DON/AcDON at 50 μM (Fusarium graminearum): 99% | log p (pH 2.7): 3.37^[b] | protection (Pyrenophora teres): 100%
